Reference: patent publication US11965039B2, “Compstatin analogues and their medical uses” (priority 2018, dated 2024)
Starred links: 1 amine or outer side, 2 acyl side, 3 side chain; linkers in the order of their positions; H or OH if unused. Positions of bridges follow the written chain, without caps; N, C: chain ends. Non-standard residues stand in square brackets, D forms with d. Residues, ends and D or L forms follow the SMILES beside them. Groups on a side chain read outwards from the residue. *: point of attachment. Trp(1-Me) = Cn1cc(C[C@H](N)C(=O)O)c2ccccc21; C18 diacid = O=C(O)CCCCCCCCCCCCCCCCC(=O)*; C16 diacid = O=C(O)CCCCCCCCCCCCCCC(=O)*; γGlu = O=C(O)[C@H](CCC(=O)[*:2])N[*:1]; AEEA = NCCOCCOCC(=O)O; Sar = CNCC(=O)O

What was measured:
[1] = test system: classical complement pathway; assay: In vitro haemolysis assay (inhibition of classical complement pathway); type: cell-based, human; settings: human serum, sensitized sheep red blood cells; Table 3, given as upper bounds; read-out: IC50, inhibition of hemolysis
Procedure, shortened: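 Compound dilutions preincubated 15 min at room temperature with diluted human serum (titrated per batch for 70-90% maximal haemolysis), then antibody-sensitized sheep RBC (10^7/well) added for 30 min at 37 °C in Tris/casein buffer, pH 7.4. Stopped with EDTA; haemolysis read at 405 nm; IC50 by 4PL fit.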

[2] = Pharmacokinetic half-life in non-human primates (serum, LC-MS/MS); type: in vivo, Cynomolgus monkeys (Macaca fascicularis); settings: male, cynomolgus monkey, sc, NHP, single subcutaneous dose 1840 nmol/kg, * = approximate determination
Procedure: Healthy male Cynomolgus monkeys (Macaca fascicularis) received single subcutaneous administrations of each test substance. Compounds were formulated in 20 mM phosphate adjusted with NaOH to pH 7.5 and mannitol for isotonicity and dosed at 1840 nmol/kg. Blood was collected from a femoral vein from each animal at the following times: Pre-dose, 1, 2, 4, 8, 24, 48, 72, 96 and 120 h (10 sampling times). Blood was collected into serum separation tubes and allowed to clot at room temperature. The tubes were centrifuged and resulting serum was aliquoted and snap-frozen over dry-ice and stored at nominally −80° C. until analysis. All NHP studies were performed in accordance with animal welfare laws and regulations, including approval of the study by a local ethical review process.
In order to assess pharmacokinetic half-life (t ½), serum samples isolated from non-human primates at specific time points after dosing were analysed for total drug compound after sample preparation by solid phase extraction (SPE) and liquid chromatography mass spectrometry (LC-MS/MS) using analogue internal standard. Single measurement of serum concentrations were used for calculation of the pharmacokinetic parameters using the non-compartmental approach in Phoenix WinNonlin 6.3. Plasma terminal elimination half-life (t½) was determined as In(2)/λz where λz is the magnitude of the slope of the log linear regression of the log concentration versus time profile during the terminal phase.

[3] = Solubility test at 10 mg/mL (visual inspection and light scattering); type: physicochemical; settings: for Solubility, Condition 1: Acetate pH 4; for Solubility, Condition 2: Acetate pH 5; for Solubility, Condition 3: Phosphate pH 6; for Solubility, Condition 4: Phosphate pH 7; for Solubility, Condition 5: Phosphate pH 7.5

| Compound | IC50 [1] | half-life [2] | Solubility, Condition 1 [3] | Solubility, Condition 2 [3] | Solubility, Condition 3 [3] | Solubility, Condition 4 [3] | Solubility, Condition 5 [3] |
| --- | --- | --- | --- | --- | --- | --- | --- |
| CC[C@H](C)[C@@H]1NC(=O)[C@@H](NC(=O)[C@H](Cc2ccc(O)cc2)NC(=O)[C@H](C)NC(=O)[C@H](CO)NC(C)=O)CSSC[C@@H](C(=O)N(C)CC(=O)N[C@@H](CCC(=O)O)C(=O)N[C@@H](CCCCNC(=O)CC[C@H](NC(=O)CNC(=O)CC[C@H](NC(=O)CCCCCCCCCCCCCCCCC(=O)O)C(=O)O)C(=O)O)C(N)=O)NC(=O)[C@H](CCCNC(=N)N)NC(=O)[C@H](Cc2c[nH]cn2)NC(=O)[C@H](CCC(=O)O)NC(=O)CNC(=O)[C@H](Cc2c[nH]c3ccccc23)NC(=O)[C@H](CC(=O)O)NC(=O)[C@H](CCC(N)=O)NC(=O)[C@H](Cc2cn(C)c3ccccc23)NC1=O [Compound 106] (Ac-SAYCI[Trp(1-Me)]QDWGEHRC[Sar]EK([γGlu-Gly-γGlu-C18 diacid])-NH2; disulfide 4-14) | < 250 nM | ~3.91 days |  |  |  |  |  |
| CC[C@H](C)[C@@H]1NC(=O)[C@@H](NC(=O)[C@H](Cc2ccc(O)cc2)NC(=O)[C@H](C)NC(=O)[C@H](CO)NC(=O)CNC(=O)[C@H](CCC(=O)O)NC(C)=O)CSSC[C@@H](C(=O)N(C)CC(=O)N[C@@H](CCC(=O)O)C(=O)N[C@@H](CCCCN)C(=O)N[C@@H](CCC(=O)N[C@@H](CCCCNC(=O)COCCOCCNC(=O)COCCOCCNC(=O)CC[C@H](NC(=O)CCCCCCCCCCCCCCCCC(=O)O)C(=O)O)C(N)=O)C(=O)O)NC(=O)[C@H](CCCNC(=N)N)NC(=O)[C@H](Cc2c[nH]cn2)NC(=O)[C@H](CCC(=O)O)NC(=O)CNC(=O)[C@H](Cc2c[nH]c3ccccc23)NC(=O)[C@H](CC(=O)O)NC(=O)[C@H](CCC(N)=O)NC(=O)[C@H](Cc2cn(C)c3ccccc23)NC1=O [Compound 111] (Ac-EGSAYCI[Trp(1-Me)]QDWGEHRC[Sar]EK[γGlu]K([AEEA-AEEA-γGlu-C18 diacid])-NH2; disulfide 6-16) | < 100 nM | ~6.54 days | − (“−” denotes lack of solubility at the given condition, as UV absorbance at 340 nm exceeds 0.1 AU and/or it is visibly turbid or contains particles) | − (“−” denotes lack of solubility at the given condition, as UV absorbance at 340 nm exceeds 0.1 AU and/or it is visibly turbid or contains particles) | + (“+” denotes solubility at the given condition, as determined by UV absorbance being less than 0.1 AU at 340 nm and the sample being clear when manually inspected) | + (“+” denotes solubility at the given condition, as determined by UV absorbance being less than 0.1 AU at 340 nm and the sample being clear when manually inspected) | + (“+” denotes solubility at the given condition, as determined by UV absorbance being less than 0.1 AU at 340 nm and the sample being clear when manually inspected) |
| CC[C@H](C)[C@@H]1NC(=O)[C@@H](NC(=O)[C@H](Cc2ccc(O)cc2)NC(=O)[C@H](C)NC(=O)[C@H](CO)NC(=O)CNC(=O)[C@H](CCC(=O)O)NC(C)=O)CSSC[C@@H](C(=O)N(C)CC(=O)N[C@@H](CCC(=O)O)C(=O)NCC(=O)N[C@@H](CCCCNC(=O)COCCOCCNC(=O)COCCOCCNC(=O)CC[C@H](NC(=O)CCCCCCCCCCCCCCC(=O)O)C(=O)O)C(N)=O)NC(=O)[C@H](CCCNC(=N)N)NC(=O)[C@H](Cc2c[nH]cn2)NC(=O)[C@H](CCC(=O)O)NC(=O)CNC(=O)[C@H](Cc2c[nH]c3ccccc23)NC(=O)[C@H](CC(=O)O)NC(=O)[C@H](CCC(N)=O)NC(=O)[C@H](Cc2cn(C)c3ccccc23)NC1=O [Compound 104] (Ac-EGSAYCI[Trp(1-Me)]QDWGEHRC[Sar]EGK([AEEA-AEEA-γGlu-C16 diacid])-NH2; disulfide 6-16) | < 100 nM | ~4.01 days | − (“−” denotes lack of solubility at the given condition, as UV absorbance at 340 nm exceeds 0.1 AU and/or it is visibly turbid or contains particles) | + (“+” denotes solubility at the given condition, as determined by UV absorbance being less than 0.1 AU at 340 nm and the sample being clear when manually inspected) | + (“+” denotes solubility at the given condition, as determined by UV absorbance being less than 0.1 AU at 340 nm and the sample being clear when manually inspected) | + (“+” denotes solubility at the given condition, as determined by UV absorbance being less than 0.1 AU at 340 nm and the sample being clear when manually inspected) | + (“+” denotes solubility at the given condition, as determined by UV absorbance being less than 0.1 AU at 340 nm and the sample being clear when manually inspected) |
| CC[C@H](C)[C@@H]1NC(=O)[C@@H](NC(=O)[C@H](Cc2ccc(O)cc2)NC(=O)[C@H](CCC(=O)O)NC(=O)[C@H](CO)NC(C)=O)CSSC[C@@H](C(=O)N(C)CC(=O)N[C@@H](CCC(=O)O)C(=O)NCC(=O)N[C@@H](C)C(=O)N[C@@H](CCCCNC(=O)COCCOCCNC(=O)CC[C@H](NC(=O)COCCOCCNC(=O)CNC(=O)CC[C@H](NC(=O)CCCCCCCCCCCCCCCCC(=O)O)C(=O)O)C(=O)O)C(N)=O)NC(=O)[C@H](CCCNC(=N)N)NC(=O)[C@H](Cc2c[nH]cn2)NC(=O)[C@H](CCC(=O)O)NC(=O)CNC(=O)[C@H](Cc2c[nH]c3ccccc23)NC(=O)[C@H](CC(=O)O)NC(=O)[C@H](CCC(N)=O)NC(=O)[C@H](Cc2cn(C)c3ccccc23)NC1=O [Compound 118] (Ac-SEYCI[Trp(1-Me)]QDWGEHRC[Sar]EGAK([AEEA-γGlu-AEEA-Gly-γGlu-C18 diacid])-NH2; disulfide 4-14) | < 100 nM | ~3.28 days | − (“−” denotes lack of solubility at the given condition, as UV absorbance at 340 nm exceeds 0.1 AU and/or it is visibly turbid or contains particles) | + (“+” denotes solubility at the given condition, as determined by UV absorbance being less than 0.1 AU at 340 nm and the sample being clear when manually inspected) | + (“+” denotes solubility at the given condition, as determined by UV absorbance being less than 0.1 AU at 340 nm and the sample being clear when manually inspected) | + (“+” denotes solubility at the given condition, as determined by UV absorbance being less than 0.1 AU at 340 nm and the sample being clear when manually inspected) | + (“+” denotes solubility at the given condition, as determined by UV absorbance being less than 0.1 AU at 340 nm and the sample being clear when manually inspected) |
